{"source": "paper PMC7979765", "about": "“trans-Translation inhibitors bind to a novel site on the ribosome and clear Neisseria gonorrhoeae in vivo” (Nature Communications, 2021)", "tested_on": "Neisseria gonorrhoeae", "assay": "MIC, microbroth dilution, G77L medium", "format": "cell-based", "note": "Where two headings read alike, the source gives them in different places.", "data": [{"smiles": "O=C(Nc1nnc(-c2ccc(F)cc2)o1)N1CCc2ccccc2C1", "note": "[MBX-4132]", "values": [{"measurement": "MIC", "setting": "Neisseria gonorrhoeae ATCC 49226, source data, individual replicates", "value": 0.08459, "unit": "µg/mL"}, {"measurement": "MIC", "setting": "Neisseria gonorrhoeae, ATCC49226, Neisseria gonorrhoeae ATCC 49226, source data, individual replicates", "value": 0.169, "unit": "µg/mL"}, {"measurement": "MIC", "setting": "Neisseria gonorrhoeae, ATCC49226, read-out: MIC GEOMEAN, strain ATCC 49226, geomean of replicates", "value": 0.134, "unit": "µg/mL"}, {"measurement": "MIC", "setting": "Neisseria gonorrhoeae, ATCC49226, strain ATCC 49226, replicates 1-3", "value": 0.169, "unit": "µg/mL"}, {"measurement": "MIC", "setting": "Neisseria gonorrhoeae, ATCC49226, strain ATCC 49226, type strain", "value": 0.13, "unit": "µg/mL"}, {"measurement": "MIC", "setting": "Neisseria gonorrhoeae, ATCC49226, strain MMX ATCC 49226, broth dilution by Micromyx", "value": 0.27, "unit": "µg/mL"}, {"measurement": "MIC", "setting": "Neisseria gonorrhoeae, ATCC700719, read-out: MIC GEOMEAN, strain ATCC 700719, geomean of replicates", "value": 0.213, "unit": "µg/mL"}, {"measurement": "MIC", "setting": "Neisseria gonorrhoeae, ATCC700719, strain ATCC 700719, SPT", "value": 0.21, "unit": "µg/mL"}, {"measurement": "MIC", "setting": "Neisseria gonorrhoeae, ATCC700719, strain ATCC 700719, replicates 1-3", "value": 0.169, "unit": "µg/mL"}, {"measurement": "MIC", "setting": "Neisseria gonorrhoeae, ATCC700825, read-out: MIC GEOMEAN, strain ATCC 700825, geomean of replicates", "value": 0.042, "unit": "µg/mL"}, {"measurement": "MIC", "setting": "Neisseria gonorrhoeae, ATCC700825, strain ATCC 700825, STR", "value": 0.04, "unit": "µg/mL"}, {"measurement": "MIC", "setting": "Neisseria gonorrhoeae, ATCC700825, strain ATCC 700825, replicates 1-3", "value": 0.042, "unit": "µg/mL"}, {"measurement": "MIC", "setting": "Neisseria gonorrhoeae, BAA1846, read-out: MIC GEOMEAN, strain BAA-1846, geomean of replicates", "value": 0.042, "unit": "µg/mL"}, {"measurement": "MIC", "setting": "Neisseria gonorrhoeae, BAA1846, strain BAA-1846, TET", "value": 0.04, "unit": "µg/mL"}, {"measurement": "MIC", "setting": "Neisseria gonorrhoeae, BAA1846, strain BAA-1846, replicates 1-3", "value": 0.042, "unit": "µg/mL"}, {"measurement": "MIC90", "setting": "Neisseria gonorrhoeae, read-out: MIC90 (n)", "value": 0.53, "unit": "µg/mL"}, {"measurement": "MIC", "setting": "Neisseria gonorrhoeae, read-out: MIC GEOMEAN, strain CDC-0165, geomean of replicates", "value": 0.677, "unit": "µg/mL"}, {"measurement": "MIC", "setting": "Neisseria gonorrhoeae, read-out: MIC GEOMEAN, strain CDC-0166, geomean of replicates", "value": 0.169, "unit": "µg/mL"}, {"measurement": "MIC", "setting": "Neisseria gonorrhoeae, read-out: MIC GEOMEAN, strain CDC-0167, geomean of replicates", "value": 0.134, "unit": "µg/mL"}, {"measurement": "MIC", "setting": "Neisseria gonorrhoeae, read-out: MIC GEOMEAN, strain CDC-0169, geomean of replicates", "value": 0.169, "unit": "µg/mL"}, {"measurement": "MIC", "setting": "Neisseria gonorrhoeae, read-out: MIC GEOMEAN, strain CDC-0170, geomean of replicates", "value": 0.169, "unit": "µg/mL"}, {"measurement": "MIC", "setting": "Neisseria gonorrhoeae, read-out: MIC GEOMEAN, strain CDC-0171, geomean of replicates", "value": 0.169, "unit": "µg/mL"}, {"measurement": "MIC", "setting": "Neisseria gonorrhoeae, read-out: MIC GEOMEAN, strain CDC-0172, geomean of replicates", "value": 0.169, "unit": "µg/mL"}, {"measurement": "MIC", "setting": "Neisseria gonorrhoeae, read-out: MIC GEOMEAN, strain CDC-0173, geomean of replicates", "value": 0.169, "unit": "µg/mL"}, {"measurement": "MIC", "setting": "Neisseria gonorrhoeae, read-out: MIC GEOMEAN, strain CDC-0174, geomean of replicates", "value": 0.169, "unit": "µg/mL"}, {"measurement": "MIC", "setting": "Neisseria gonorrhoeae, read-out: MIC GEOMEAN, strain CDC-0175, geomean of replicates", "value": 0.085, "unit": "µg/mL"}, {"measurement": "MIC", "setting": "Neisseria gonorrhoeae, read-out: MIC GEOMEAN, strain CDC-0176, geomean of replicates", "value": 0.338, "unit": "µg/mL"}, {"measurement": "MIC", "setting": "Neisseria gonorrhoeae, read-out: MIC GEOMEAN, strain CDC-0177, geomean of replicates", "value": 0.169, "unit": "µg/mL"}, {"measurement": "MIC", "setting": "Neisseria gonorrhoeae, read-out: MIC GEOMEAN, strain CDC-0178, geomean of replicates", "value": 0.338, "unit": "µg/mL"}, {"measurement": "MIC", "setting": "Neisseria gonorrhoeae, read-out: MIC GEOMEAN, strain CDC-0179, geomean of replicates", "value": 0.085, "unit": "µg/mL"}, {"measurement": "MIC", "setting": "Neisseria gonorrhoeae, read-out: MIC GEOMEAN, strain CDC-0180, geomean of replicates", "value": 0.169, "unit": "µg/mL"}, {"measurement": "MIC", "setting": "Neisseria gonorrhoeae, read-out: MIC GEOMEAN, strain CDC-0181, geomean of replicates", "value": 0.169, "unit": "µg/mL"}, {"measurement": "MIC", "setting": "Neisseria gonorrhoeae, read-out: MIC GEOMEAN, strain CDC-0182, geomean of replicates", "value": 0.169, "unit": "µg/mL"}, {"measurement": "MIC", "setting": "Neisseria gonorrhoeae, read-out: MIC GEOMEAN, strain CDC-0183, geomean of replicates", "value": 0.338, "unit": "µg/mL"}, {"measurement": "MIC", "setting": "Neisseria gonorrhoeae, read-out: MIC GEOMEAN, strain CDC-0184, geomean of replicates", "value": 0.169, "unit": "µg/mL"}, {"measurement": "MIC", "setting": "Neisseria gonorrhoeae, read-out: MIC GEOMEAN, strain CDC-0185, geomean of replicates", "value": 0.269, "unit": "µg/mL"}, {"measurement": "MIC", "setting": "Neisseria gonorrhoeae, read-out: MIC GEOMEAN, strain CDC-0186, geomean of replicates", "value": 0.169, "unit": "µg/mL"}, {"measurement": "MIC", "setting": "Neisseria gonorrhoeae, read-out: MIC GEOMEAN, strain CDC-0187, geomean of replicates", "value": 0.338, "unit": "µg/mL"}, {"measurement": "MIC", "setting": "Neisseria gonorrhoeae, read-out: MIC GEOMEAN, strain CDC-0188, geomean of replicates", "value": 0.169, "unit": "µg/mL"}, {"measurement": "MIC", "setting": "Neisseria gonorrhoeae, read-out: MIC GEOMEAN, strain CDC-0189, geomean of replicates", "value": 0.134, "unit": "µg/mL"}, {"measurement": "MIC", "setting": "Neisseria gonorrhoeae, read-out: MIC GEOMEAN, strain CDC-0190, geomean of replicates", "value": 0.169, "unit": "µg/mL"}, {"measurement": "MIC", "setting": "Neisseria gonorrhoeae, read-out: MIC GEOMEAN, strain HO41, geomean of replicates", "value": 0.169, "unit": "µg/mL"}, {"measurement": "MIC", "setting": "Neisseria gonorrhoeae, read-out: MIC GEOMEAN, strain WHO F, geomean of replicates", "value": 0.066, "unit": "µg/mL"}, {"measurement": "MIC", "setting": "Neisseria gonorrhoeae, read-out: MIC GEOMEAN, strain WHO G, geomean of replicates", "value": 0.132, "unit": "µg/mL"}, {"measurement": "MIC", "setting": "Neisseria gonorrhoeae, read-out: MIC GEOMEAN, strain WHO K, geomean of replicates", "value": 0.264, "unit": "µg/mL"}, {"measurement": "MIC", "setting": "Neisseria gonorrhoeae, read-out: MIC GEOMEAN, strain WHO L, geomean of replicates", "value": 0.264, "unit": "µg/mL"}, {"measurement": "MIC", "setting": "Neisseria gonorrhoeae, read-out: MIC GEOMEAN, strain WHO M, geomean of replicates", "value": 0.132, "unit": "µg/mL"}, {"measurement": "MIC", "setting": "Neisseria gonorrhoeae, read-out: MIC GEOMEAN, strain WHO N, geomean of replicates", "value": 0.264, "unit": "µg/mL"}, {"measurement": "MIC", "setting": "Neisseria gonorrhoeae, read-out: MIC GEOMEAN, strain WHO O, geomean of replicates", "value": 0.132, "unit": "µg/mL"}, {"measurement": "MIC", "setting": "Neisseria gonorrhoeae, read-out: MIC GEOMEAN, strain WHO P, geomean of replicates", "value": 0.333, "unit": "µg/mL"}, {"measurement": "MIC", "setting": "Neisseria gonorrhoeae, read-out: MIC GEOMEAN, strain WHO U, geomean of replicates", "value": 0.132, "unit": "µg/mL"}, {"measurement": "MIC", "setting": "Neisseria gonorrhoeae, read-out: MIC GEOMEAN, strain WHO V, geomean of replicates", "value": 0.264, "unit": "µg/mL"}, {"measurement": "MIC", "setting": "Neisseria gonorrhoeae, read-out: MIC GEOMEAN, strain WHO W, geomean of replicates", "value": 0.132, "unit": "µg/mL"}, {"measurement": "MIC", "setting": "Neisseria gonorrhoeae, read-out: MIC GEOMEAN, strain WHO X, geomean of replicates", "value": 0.21, "unit": "µg/mL"}, {"measurement": "MIC", "setting": "Neisseria gonorrhoeae, read-out: MIC GEOMEAN, strain WHO Y, geomean of replicates", "value": 0.21, "unit": "µg/mL"}]}]}
